Converted amounts (≈) assume the structure as drawn.
Experiments:
[1] = system: Pseudomonas aeruginosa MB 5919 (OprD+, efflux+); experiment: microbe, parasite or virus in culture; type: cell-based
[2] = system: Pseudomonas aeruginosa MB 5890 (OprD+, efflux−); experiment: microbe, parasite or virus in culture; type: cell-based
[3] = system: MB 9798: MB 5919 Trans IMP1 plasmid (OprD+, efflux+); experiment: microbe, parasite or virus in culture; type: cell-based, Pseudomonas aeruginosa
[4] = system: MB 9799: MB 5890 Trans IMP1 plasmid (OprD+, efflux−); experiment: microbe, parasite or virus in culture; type: cell-based, Pseudomonas aeruginosa
[5] = system: MB 9861: MB 5919 Trans pFlp-Vim1 plasmid (OprD+, efflux+); experiment: microbe, parasite or virus in culture; type: cell-based, Pseudomonas aeruginosa
[6] = system: MB9862: MB 5890 Trans pFlp-Vim1 (OprD+, efflux−); experiment: microbe, parasite or virus in culture; type: cell-based, Pseudomonas aeruginosa
[7] = system: MB 5919 Trans pFlp-Vim2 plasmid (OprD+, efflux+); experiment: microbe, parasite or virus in culture; type: cell-based, Pseudomonas aeruginosa
[8] = system: MB 5890 Trans pFlp-Vim2 plasmid (OprD+, efflux−); experiment: microbe, parasite or virus in culture; type: cell-based, Pseudomonas aeruginosa
IMP-1 = IMP-1 (Serratia marcescens, UniProt P52699); experiment: biochemical; type: biochemical; conditions: fluorescence assay, CCF2-FA substrate, 2 pM enzyme, 2 hours at 25° C.; read-out: IMP-1 IC50
Outline: (§1)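 IC50 values derive from 4-parameter fits of percent inhibition against inhibitor concentration on semi-log axes. Activity was monitored by fluorescence with the CCF2-FA substrate after a 2-hour, 25° C incubation of compound, enzyme and substrate.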

NDM-1 = NDM-1 (Klebsiella pneumoniae, UniProt C7C422); experiment: biochemical; type: biochemical; conditions: fluorescence assay, CCF2-FA substrate, 1 pM enzyme, 2 hours at 25° C.; read-out: NDM-1 IC50
Outline: as §1

VIM-1 = VIM-1 (Pseudomonas aeruginosa (strain ATCC 15692 / DSM 22644 / CIP 104116 / JCM 14847 / LMG 12228 / 1C / PRS 101 / PAO1), UniProt A0A0F7KYQ8); experiment: biochemical; conditions: VIM-1 IC50, fluorescence assay, CCF2-FA substrate, 30 pM enzyme, 2 hours at 25° C.
Outline: as §1

[9] = system: Escherichia coli expressing NDM-1 (CLB30005, CLB30016); type: cell-based; conditions: with imipenem 1 μg/ml; 95% inhibition of bacterial growth
Outline: (§2)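 Clinical isolates (E. coli NDM-1, S. marcescens IMP-1, K. pneumoniae VIM-1) were diluted 1:100 from saline suspension into 1.1×CAMHB and exposed to test compound with imipenem at 1 μg/ml. Plates were incubated at 35° C for 22 hours to 24 hours, and growth was read by absorbance.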

[10] = system: Klebsiella pneumoniae expressing VIM-1 (IHMA599644); type: cell-based; conditions: with imipenem 1 μg/ml; 95% inhibition of bacterial growth
Outline: as §2

[11] = system: Serratia marcescens expressing IMP-1 (CL5741); type: cell-based; conditions: with imipenem 1 μg/ml; 95% inhibition of bacterial growth
Outline: as §2

[12] = system: Pseudomonas aeruginosa efflux+ (MB9798), IMP-1; type: cell-based; conditions: concentration restoring susceptibility to imipenem at 2 μg/mL in the presence of a class A, C, D serine β-lactamase inhibitor closely related to relebactam
Outline: (§3)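 P. aeruginosa PAO1-derived IMP-1 strains, efflux+ MB9798 and efflux− MB9799, tested by standard microbroth MIC with imipenem and/or ceftazidime fixed, usually at CLSI breakpoint, plus fixed class A/C β-lactamase inhibitor against AmpC. Inhibitor titrated; concentration restoring susceptibility recorded; MB9798/MB9799 fold difference indicates efflux.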

[13] = system: Pseudomonas aeruginosa efflux− (MB9799), IMP-1; type: cell-based; conditions: concentration restoring susceptibility to imipenem at 2 μg/mL in the presence of a class A, C, D serine β-lactamase inhibitor closely related to relebactam
Outline: as §3

[14] = system: Pseudomonas aeruginosa MB9798 vs MB9799; conditions: ratio MITC95 PA_9798/MITC95 PA_9799
Outline: as §3

[15] = MB 9798 = MB 5919 Trans IMP1 plasmid, OprD+, efflux+
[16] = MB 9799 = MB 5890 Trans IMP1 plasmid, OprD+, efflux−
[17] = MB 9861 = MB 5919 Trans pFlp-Vim1 plasmid, OprD+, efflux+
[18] = MB9862 = MB 5890 Trans pFlp-Vim1, OprD+, efflux−
[19] = MB 5919 Trans pFlp-Vim2 plasmid, OprD+, efflux+
[20] = MB 5890 Trans pFlp-Vim2 plasmid, OprD+, efflux−

NDM-1, sequence (C7C422 whole entry, looked up, species assumed): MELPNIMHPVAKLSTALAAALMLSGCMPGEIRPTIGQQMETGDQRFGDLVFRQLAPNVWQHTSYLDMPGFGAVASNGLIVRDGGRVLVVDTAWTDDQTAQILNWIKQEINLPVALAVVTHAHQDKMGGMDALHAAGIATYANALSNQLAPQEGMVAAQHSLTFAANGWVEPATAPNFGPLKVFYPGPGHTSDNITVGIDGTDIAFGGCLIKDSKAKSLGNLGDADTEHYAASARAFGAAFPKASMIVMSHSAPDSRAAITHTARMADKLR
IMP-1, sequence (P52699 whole entry, looked up, species assumed): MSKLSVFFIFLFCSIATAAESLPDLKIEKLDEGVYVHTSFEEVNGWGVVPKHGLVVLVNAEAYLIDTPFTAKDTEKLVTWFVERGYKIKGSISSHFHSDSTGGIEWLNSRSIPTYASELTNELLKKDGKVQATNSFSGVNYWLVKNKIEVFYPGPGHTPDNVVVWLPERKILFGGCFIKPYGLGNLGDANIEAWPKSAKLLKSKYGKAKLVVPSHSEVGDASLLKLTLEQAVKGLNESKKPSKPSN

Compound	MIC ([1]; Pseudomonas aeruginosa)	MIC ([2]; Pseudomonas aeruginosa)	MIC ([3]; Pseudomonas aeruginosa)	MIC ([4]; Pseudomonas aeruginosa)	MIC ([5]; Pseudomonas aeruginosa)	MIC ([6]; Pseudomonas aeruginosa)	MIC ([7]; Pseudomonas aeruginosa)	MIC ([8]; Pseudomonas aeruginosa)	MIC ([1]; MB 5919, OprD+, efflux+)	MIC ([2]; MB 5890, OprD+, efflux−)	MIC [3, 15]	MIC [4, 16]	MIC [5, 17]	MIC [6, 18]	MIC [7, 19]	MIC [8, 20]	also measured
O=C(N[C@H](CO)[C@H](O)c1ccc([N+](=O)[O-])cc1)C(Cl)Cl [Chloroamphenicol, chloramphenicol]	> 64 µg/mL	1 µg/mL (≈ 3.09 µM)	> 64 µg/mL	1 µg/mL (≈ 3.09 µM)	> 64 µg/mL	2 µg/mL (≈ 6.19 µM)	> 64 µg/mL	1 µg/mL (≈ 3.09 µM)									
CC[C@H]1OC(=O)[C@H](C)[C@@H](O[C@H]2C[C@@](C)(OC)[C@@H](O)[C@H](C)O2)[C@H](C)[C@@H](O[C@@H]2O[C@H](C)C[C@H](N(C)C)[C@H]2O)[C@](C)(O)C[C@@H](C)CN(C)[C@H](C)[C@@H](O)[C@]1(C)O [Azithromycin]	16 µg/mL (≈ 21.4 µM)	1 µg/mL (≈ 1.34 µM)	16 µg/mL (≈ 21.4 µM)	2 µg/mL (≈ 2.67 µM)	32 µg/mL (≈ 42.7 µM)	1 µg/mL (≈ 1.34 µM)	32 µg/mL (≈ 42.7 µM)	1 µg/mL (≈ 1.34 µM)									
C[C@@H](O)[C@H]1C(=O)N2C(C(=O)O)=C(S[C@@H]3CN[C@H](C(=O)N(C)C)C3)[C@H](C)[C@H]12 [Meropenem, meropenem]									2 µg/mL (≈ 5.22 µM)	0.5 µg/mL (≈ 1.3 µM)	>64 µg/mL	64 µg/mL (≈ 167 µM)	>64 µg/mL	64 µg/mL (≈ 167 µM)	>64 µg/mL	32 µg/mL (≈ 83.4 µM)	
C[C@@H](O)[C@H]1C(=O)N2C(C(=O)O)=C(SCCN=CN)C[C@H]12 [Imipenem, imipenem]									4 µg/mL (≈ 13.4 µM)	2 µg/mL (≈ 6.68 µM)	64 µg/mL (≈ 214 µM)	32 µg/mL (≈ 107 µM)	>64 µg/mL	64 µg/mL (≈ 214 µM)	>64 µg/mL	32 µg/mL (≈ 107 µM)	
CC(C)(O/N=C(\C(=O)N[C@@H]1C(=O)N2C(C(=O)[O-])=C(C[n+]3ccccc3)CS[C@H]12)c1csc(N)n1)C(=O)O [CAZ, ceftazidime]									1 µg/mL (≈ 1.83 µM)	0.5 µg/mL (≈ 0.915 µM)	256 µg/mL (≈ 468 µM)	256 µg/mL (≈ 468 µM)	>256 µg/mL	>256 µg/mL	128 µg/mL (≈ 234 µM)	64 µg/mL (≈ 117 µM)	
Nc1nc2c(-c3ccc(S(=O)(=O)NCCC(N)CF)c(S(N)(=O)=O)c3-c3nnn[nH]3)cccc2s1.O=CO (stereo not shown) [Example 123, 4-(4-(2-aminobenzo[d]thiazol-4-yl)-2-sulfamoyl-3-(1H-tetrazol-5-yl)phenylsulfonamido)-1-fluorobutan-2-aminium formate]																	IC50 (IMP-1): 219 pM; IC50 (NDM-1): 36 pM; IC50 (VIM-1): 188 pM; Escherichia coli expressing NDM-1 (CLB30016) MITC95 [9]: 1.563 µM; Klebsiella pneumoniae expressing VIM-1 (IHMA599644) MITC95 [10]: 3.125 µM; Serratia marcescens expressing IMP-1 (CL5741) MITC95 [11]: 1.563 µM; P. aeruginosa expressing IMP-1, efflux + (MB9798) MITC95 [12]: 1.563 µM; P. aeruginosa expressing IMP-1, efflux − (MB9799) MITC95 [13]: 1.563 µM; Efflux ratio [14]: 1.00

Reference: patent US10221163B2 (priority 2015, dated 2019)
